Reference: patent US6399105B1, “Sea cucumber carotenoid lipid fraction products and methods of use” (priority 2000, dated 2002)

How the values were obtained:
[1] = system: adjuvant induced arthritis; assay: Adjuvant induced arthritis assay in rats; assay type: in vivo, rat; details: 10 mg/kg orally once per day for 7 days; for Mean Paw Wt.: 6 rats; for % Anti-inflammatory Response: (control - test)/test x 100
5-lipoxygenase (5-LO) = molecular target: T1, 5-lipoxygenase (5-LO) (Homo sapiens, UniProt P09917); assay: 5-Lipoxygenase assay in human PMNs (LTB4, isomers, 5-HETE by HPLC); assay type: cell-based; details: human neutrophils
T1 construct: Human PMNs isolated by standard procedures from a normal volunteer were prewarmed to 37° C; endogenous in cells; host or cells: human polymorphonuclear leukocytes (neutrophils) from a normal volunteer
T1 sequence (P09917 1-674): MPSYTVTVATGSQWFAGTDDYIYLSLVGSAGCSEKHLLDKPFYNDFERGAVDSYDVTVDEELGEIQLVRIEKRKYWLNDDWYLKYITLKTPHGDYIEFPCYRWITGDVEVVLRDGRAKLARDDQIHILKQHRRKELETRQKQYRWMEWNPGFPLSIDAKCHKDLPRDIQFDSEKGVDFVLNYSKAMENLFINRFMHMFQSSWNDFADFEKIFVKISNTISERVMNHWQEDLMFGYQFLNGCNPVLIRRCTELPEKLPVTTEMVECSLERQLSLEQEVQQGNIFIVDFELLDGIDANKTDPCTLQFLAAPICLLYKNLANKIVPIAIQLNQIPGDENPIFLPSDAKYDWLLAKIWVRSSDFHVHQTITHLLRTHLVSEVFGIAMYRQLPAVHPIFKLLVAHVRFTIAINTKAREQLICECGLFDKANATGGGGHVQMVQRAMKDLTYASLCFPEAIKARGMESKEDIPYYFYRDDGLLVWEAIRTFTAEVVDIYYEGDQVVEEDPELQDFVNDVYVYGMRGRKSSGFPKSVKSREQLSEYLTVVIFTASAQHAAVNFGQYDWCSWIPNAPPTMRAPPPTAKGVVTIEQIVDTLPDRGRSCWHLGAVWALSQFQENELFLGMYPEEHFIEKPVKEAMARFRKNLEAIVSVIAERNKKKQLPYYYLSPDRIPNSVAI
From the text: 5-lipoxygenase (5-LO) is a key enzyme in the metabolism of arachidonic acid (AA) to leukotriene B4 (LTB4) and hydroxyeicosatetraenoic acid (5-HETE) it a wide variety of cells. including polymorphonuclear (PMN) leukocytes (Henderson, 1994) and has recently been linked to prostate and other cancers (Ghosh and Myers, 1997). LTB4 is a chemotaxic signaling agent involved in the migration of PMNs from the blood stream to sites of tissue injury, which is a hallmark of the inflammatory response. Human PMNs isolated by standard procedures from a normal volunteer were prewarmed to 37° C. and, at time=0, 10 μL of test compounds suspended in methanol by sonication, or methanol alone, were added to 1 mL of the PMN suspension. At t=10 min, […] of 2 mM AA were added to each suspension as the 5-LO substrate. At t=14 min, the calcium ionophore A23187 ([…], 1 mM) was added to activate the enzyme. The reaction was terminated at t=19 minutes by 100 μL of 100 mM citric acid, maintaining a pH of 3.0. Prostaglandin B2 and 15-HETE were added as internal standards for high pressure liquid chromatography (HPLC) quantification of LTB, and 5-HETE, respectively. Metabolites and standards were extracted from the suspension with chloroform/methanol (7:3). […] Metabolites were detected by ultraviolet light and quantified against standard curves. […]

12-lipoxygenase = molecular target: T2, 12-lipoxygenase (Homo sapiens, UniProt P18054); assay: 12-HETE assay using human platelets; assay type: cell-based
T2 construct: assayed by the method similar to the assay for 5-lipoxygenase by using human platelets; endogenous in cells; host or cells: human platelets (mixed with polymorphonuclear leukocytes, challenged with A23187)
T2 sequence (P18054 1-663): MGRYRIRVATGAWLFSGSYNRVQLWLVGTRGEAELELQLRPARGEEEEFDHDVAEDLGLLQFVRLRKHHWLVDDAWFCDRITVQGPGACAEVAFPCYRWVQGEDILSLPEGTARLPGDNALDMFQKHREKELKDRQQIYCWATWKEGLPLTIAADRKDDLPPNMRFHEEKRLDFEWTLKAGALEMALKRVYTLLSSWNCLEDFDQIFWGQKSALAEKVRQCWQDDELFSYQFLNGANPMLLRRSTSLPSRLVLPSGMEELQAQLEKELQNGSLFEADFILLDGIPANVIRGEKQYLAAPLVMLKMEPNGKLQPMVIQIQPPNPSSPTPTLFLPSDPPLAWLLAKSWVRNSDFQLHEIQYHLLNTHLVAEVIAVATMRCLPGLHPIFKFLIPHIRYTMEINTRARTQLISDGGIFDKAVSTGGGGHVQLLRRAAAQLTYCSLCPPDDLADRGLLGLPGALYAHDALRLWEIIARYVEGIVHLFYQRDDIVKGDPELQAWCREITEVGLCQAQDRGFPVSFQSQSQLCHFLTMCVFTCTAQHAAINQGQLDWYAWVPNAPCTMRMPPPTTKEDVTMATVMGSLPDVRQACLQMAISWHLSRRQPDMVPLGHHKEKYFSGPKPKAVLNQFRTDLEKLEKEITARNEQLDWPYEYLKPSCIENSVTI
Procedure: RED OIL and GOLD OIL were assayed by the method similar to the assay for 5-lipoxygenase by using human platelets. Polymorphonuclear leukocytes were mixed, challenged with A23187, and 12-HETE production was measured by high pressure liquid chromatography (HPLC). Addition of a 1:10,000 dilution of RED OIL to the reaction yielded 12-HETE levels that were 65% that of methanolic controls, while A 1:1000 dilution of GOLD OIL yielded levels that were 46% of controls.

[2] = system: PC3, MCF7, HT29 or BRO cell lines; assay: Anti-cancer assays, MTT viable dye method, 72 hr; assay type: cell-based; details: human cancer cell lines
Procedure: RED OIL and GOLD OIL and various thin-layer chromatographic fractions have been tested against human cancer cell lines in vitro. Materials were initially dissolved in dimethyl sulfoxide and then diluted in tissue culture media. Aliquots of 23 μg/mL were then applied to PC3 (human prostate), MCF7 (human breast adenocarcinoma), HT29 (human colon adenocarcinoma) or BRO (human melanoma) cell lines. These fractions mediated inhibition of cell growth relative to untreated control cells as assessed after 72 hr by the MTT viable dye method as is commonly used by those skilled in the arts. […] One such fraction isolated from sea cucumber lipid phase by the method of Findlay et al. (1983b), plastochromanol-8, was considered to be promising in that values of 20-50 μg/mL were determined as IC50 values (that concentration inhibiting 50% of cell growth). […] Plastochromanol-8 was also shown to be inhibitory of the 12-Lipoxygenase pathway in human platelets.

[3] = system: leukotriene synthesis in human neutrophils; assay: Leukotriene activation/synthesis assay in human neutrophils (method of Betts); assay type: cell-based
From the text: In a leukotriene activation assay showing the effect of plastochromanol-8 on leukotriene synthesis expressed as a percentage of a methanol control in human neutrophils, by the method of Betts (1997), plastochromanol-8 inhibited activation of 5-HETE by approximately 60 percent, LTB4 by approximately 40 percent, and two of the 6-trans isomers of LTB4 (6-trans-leukotriene B4 and 6-trans-12-epileukotriene B4), by 75%. In a related assay of the effect of plastochromanol-8 on leukotriene synthesis expressed as leukotriene synthesis per 10^6 PMN, plastochromanol-8 inhibited the production of 5-HETE by approximately 75%, LTB4 by 50%, and the two trans-6 isomers of LTB4 by approximately 80%. In similar assays with human platelets, plastochromanol-8 inhibited 12-HETE synthesis by approximately 80%.

[4] = leukotriene synthesis as percentage of methanol control
[5] = leukotriene synthesis per 10^6 PMN

| SMILES | Mean Paw Wt. [1] [gm] | % Anti-inflammatory Response [1] [%] | inhibition of 5-lipoxygenase metabolite synthesis (LTB4, isomers, 5-HETE), in words (5-lipoxygenase (5-LO)) | inhibition of 12-HETE synthesis (12-lipoxygenase) | inhibition of 12-lipoxygenase pathway, in words (12-lipoxygenase) | IC50 (concentration inhibiting 50% of cell growth) [2] [µg/mL] | inhibition of 5-HETE [3, 4] | inhibition of 6-trans-leukotriene B4 and 6-trans-12-epileukotriene B4 [3, 4] [%] | inhibition of LTB4 [3, 4] | inhibition of production of 5-HETE [3, 5] | inhibition of production of LTB4 [3, 5] [%] | inhibition of production of the two trans-6 isomers of LTB4 [3, 5] |
| --- | --- | --- | --- | --- | --- | --- | --- | --- | --- | --- | --- | --- |
| C[C@]12CCC(=O)C=C1CC[C@@H]1[C@@H]2[C@@H](O)C[C@@]2(C)[C@H]1CC[C@]2(O)C(=O)CO [Hydrocortisone] | 0.61 | 59.0 |  |  |  |  |  |  |  |  |  |  |
| CCCCC1C(=O)N(c2ccccc2)N(c2ccccc2)C1=O [Phenylbutazone] | 0.38 | 155.3 |  |  |  |  |  |  |  |  |  |  |
| CC(C)=CCC/C(C)=C/CC/C(C)=C/CC/C(C)=C/CC/C(C)=C/CC/C(C)=C/CC/C(C)=C/CC/C(C)=C/CC[C@]1(C)CCc2cc(O)c(C)c(C)c2O1 [plastochromanol-8] |  |  | dramatic inhibitor | approximately 80% | inhibitory | 20 to 50 | approximately 60% | 75 | approximately 40% | approximately 75% | 50 | approximately 80% |
